Source: ChEMBL document CHEMBL6109152, “Harnessing the SPOP E3 Ubiquitin Ligase via a Bridged Proteolysis Targeting Chimera (PROTAC) Strategy for Targeted Protein Degradation” (J Med Chem, 2025)
pKd: −log10 of the molar value. The source made the active and inactive calls. The rule behind the calls is not given here.

Assays:
[1] = target: T1, Speckle-type POZ protein-Bromodomain-containing protein 3 (Homo sapiens) (UniProt Q15059+O43791); assay: PROTAC activity at SPOP/BRD3 in human MDA-MB-231 cells assessed as induction of BRD3 degradation at 0.1 to 5 uM incubated for 24 hrs by Western blot analysis; type: cell-based; conditions: dose 0.1-5 µM
[2] = target: T2, Speckle-type POZ protein-Bromodomain-containing protein 4 (Homo sapiens, UniProt O60885+O43791); assay: PROTAC activity at SPOP/BRD4-S in human HT-29 cells assessed as induction of BRD4 short isoform degradation by measuring fold change at 2.5 uM incubated for 24 hrs by Western blotting analysis (reference value: 1.00); type: cell-based
[3] = target: T2, Speckle-type POZ protein-Bromodomain-containing protein 4; assay: PROTAC activity at SPOP/BRD4-S in human HT-29 cells assessed as induction of BRD4 short isoform degradation by measuring fold change at 0.625 uM incubated for 24 hrs by Western blotting analysis (reference value: 1.00); type: cell-based
[4] = target: T3, Bromodomain-containing protein 4 (Homo sapiens, UniProt O60885); assay: Binding affinity to BRD4-BD2 domain (unknown origin) assessed as assessed as dissociation constant by ITC analysis
[5] = target: T4, Speckle-type POZ protein-Bromodomain-containing protein 2 (Homo sapiens) (UniProt P25440+O43791); assay: PROTAC activity at SPOP/BRD2 in human HT-29 cells assessed as induction of BRD2 degradation at 5 uM measured after >=48 hrs by Western blot analysis; type: cell-based
[6] = target: T2, Speckle-type POZ protein-Bromodomain-containing protein 4; assay: PROTAC activity at SPOP/BRD4-S in human MDA-MB-231 cells assessed as induction of BRD4 short isoform degradation at 0.1 to 5 uM incubated for 24 hrs by Western blotting analysis; type: cell-based; conditions: dose 0.1-5 µM
[7] = target: T1, Speckle-type POZ protein-Bromodomain-containing protein 3 (Homo sapiens); assay: PROTAC activity at SPOP/BRD3 in human HT-29 cells assessed as induction of BRD3 degradation by measuring fold change at 0.156 uM incubated for 24 hrs by Western blot analysis (reference value: 1.00); type: cell-based
[8] = target: T2, Speckle-type POZ protein-Bromodomain-containing protein 4; assay: PROTAC activity at SPOP/BRD4-S in human HT-29 cells assessed as induction of BRD4 short isoform degradation at 5 uM preincubated with JQ1 for 2 hrs followed by compound addition and measured after 24 hrs by Western blot analysis; type: cell-based
[9] = target: T2, Speckle-type POZ protein-Bromodomain-containing protein 4; assay: PROTAC activity at SPOP/BRD4-S in human HT-29 cells assessed as induction of BRD4 short isoform degradation by measuring fold change at 5 uM incubated for 24 hrs by Western blotting analysis (reference value: 1.00); type: cell-based
[10] = target: T2, Speckle-type POZ protein-Bromodomain-containing protein 4; assay: PROTAC activity at SPOP/BRD4-S in human HT-29 cells assessed as induction of BRD4 short isoform degradation incubated for 24 hrs by Western blotting analysis; type: cell-based
PNT2 = assay: Cytotoxicity against human PNT2 assessed as reduction in cell growth at 0.021 to 10 uM incubated for 72 hrs by WST-8 reagent based assay; type: toxicity; conditions: pnt2, 72 h, dose 0.021-10 µM
HT-29 [11] = assay: Effect on BRD2 mRNA level in human HT-29 cells at 1 to 10 uM incubated for 24 hrs by RT-qPCR analysis; type: functional, cell-based; conditions: dose 1-10 µM
[12] = target: T3, Bromodomain-containing protein 4; assay: Inhibition of BRD4 in human HT-29 cells assessed as decrease in c-MYC protein level by measuring fold change at 5 uM incubated for 24 hrs by Western blot analysis (reference value: 1.00); type: cell-based
[13] = target: T1, Speckle-type POZ protein-Bromodomain-containing protein 3 (Homo sapiens); assay: PROTAC activity at SPOP/BRD3 in human HT-29 cells assessed as induction of BRD3 degradation by measuring fold change at 5 uM incubated for 24 hrs by Western blot analysis (reference value: 1.00); type: cell-based
[14] = target: T2, Speckle-type POZ protein-Bromodomain-containing protein 4; assay: PROTAC activity at SPOP/BRD4-L in human HT-29 cells assessed as induction of BRD4 long isoform degradation at 10 uM incubated for 24 hrs by Western blotting analysis relative to control; type: cell-based
[15] = target: T2, Speckle-type POZ protein-Bromodomain-containing protein 4; assay: PROTAC activity at SPOP/BRD4-L in human HT-29 cells assessed as induction of BRD4 long isoform degradation by measuring fold change at 0.156 uM incubated for 24 hrs by Western blotting analysis (reference value: 1.00); type: cell-based
[16] = target: T3, Bromodomain-containing protein 4; assay: Inhibition of BRD4 in human HT-29 cells assessed as decrease in c-MYC protein level by measuring fold change at 2.5 uM incubated for 24 hrs by Western blot analysis (reference value: 1.00); type: cell-based
HT-29 [17] = assay: Antiproliferative activity against human HT-29 cells assessed as cell growth inhibition incubated for 3 days by WST-8 reagent based assay; type: functional
[18] = target: T1, Speckle-type POZ protein-Bromodomain-containing protein 3 (Homo sapiens); assay: PROTAC activity at SPOP/BRD3 in human HT-29 cells assessed as induction of BRD3 degradation by measuring fold change at 0.625 uM incubated for 24 hrs by Western blot analysis (reference value: 1.00); type: cell-based
[19] = target: T2, Speckle-type POZ protein-Bromodomain-containing protein 4; assay: PROTAC activity at SPOP/BRD4-S in human HT-29 cells assessed as induction of BRD4 short isoform degradation at 0.5 to 5 uM incubated for 24 hrs by Western blotting analysis; type: cell-based; conditions: dose 0.5-5 µM
[20] = target: T2, Speckle-type POZ protein-Bromodomain-containing protein 4; assay: PROTAC activity at SPOP/BRD4-L in human HT-29 cells assessed as induction of BRD4 long isoform degradation by measuring fold change at 1.25 uM incubated for 24 hrs by Western blotting analysis (reference value: 1.00); type: cell-based
HT-29 [21] = assay: Effect on BRD4 short isoform mRNA level in human HT-29 cells at 1 to 10 uM incubated for 24 hrs by RT-qPCR analysis; type: functional, cell-based; conditions: dose 1-10 µM
[22] = target: T4, Speckle-type POZ protein-Bromodomain-containing protein 2 (Homo sapiens); assay: PROTAC activity at SPOP/BRD2 in human HT-29 cells assessed as induction of BRD2 degradation by measuring fold change at 5 uM incubated for 24 hrs by Western blot analysis (reference value: 1.00); type: cell-based
[23] = target: T4, Speckle-type POZ protein-Bromodomain-containing protein 2 (Homo sapiens); assay: PROTAC activity at SPOP/BRD2 in human HT-29 cells assessed as induction of BRD2 degradation by measuring fold change at 0.625 uM incubated for 24 hrs by Western blot analysis (reference value: 1.00); type: cell-based
[24] = target: T2, Speckle-type POZ protein-Bromodomain-containing protein 4; assay: PROTAC activity at SPOP/BRD4-L in human HT-29 cells assessed as induction of BRD4 long isoform degradation by measuring fold change at 5 uM incubated for 24 hrs by Western blotting analysis (reference value: 1.00); type: cell-based
HT-29 [25] = assay: Binding affinity to BRD4-L/GLP/SPOP in human HT-29 cells assessed as compound-BRD4-GLP-SPOP quaternary complex formation at 20 to 100 uM incubated for 1 hrs by pulldown based Western blot analysis; type: cell-based; conditions: dose 20-100 µM
[26] = target: T4, Speckle-type POZ protein-Bromodomain-containing protein 2 (Homo sapiens); assay: PROTAC activity at SPOP/BRD2 in human HT-29 cells assessed as induction of BRD2 degradation by measuring fold change at 0.313 uM incubated for 24 hrs by Western blot analysis (reference value: 1.00); type: cell-based
[27] = target: T2, Speckle-type POZ protein-Bromodomain-containing protein 4; assay: PROTAC activity at SPOP/BRD4-S in human HT-29 cells assessed as induction of BRD4 short isoform degradation at 5 uM by Western blotting analysis; type: cell-based; conditions: time 2-72 hrs

T2 sequence (O43791 whole entry, looked up, other chains not shown, canonical isoform): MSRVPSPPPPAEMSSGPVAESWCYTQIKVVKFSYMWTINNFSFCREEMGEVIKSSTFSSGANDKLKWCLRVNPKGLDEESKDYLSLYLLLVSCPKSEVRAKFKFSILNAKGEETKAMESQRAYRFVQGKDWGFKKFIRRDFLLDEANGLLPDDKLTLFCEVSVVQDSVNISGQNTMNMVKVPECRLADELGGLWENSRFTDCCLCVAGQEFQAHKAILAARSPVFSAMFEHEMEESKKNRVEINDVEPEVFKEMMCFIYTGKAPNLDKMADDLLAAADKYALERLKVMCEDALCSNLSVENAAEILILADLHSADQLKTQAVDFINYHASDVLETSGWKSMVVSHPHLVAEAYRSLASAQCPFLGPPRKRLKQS
T1 sequence (O43791 whole entry, looked up, canonical isoform): as the sequence (O43791 whole entry, looked up, other chains not shown, canonical isoform) above
T1 sequence (Q15059 whole entry, looked up, canonical isoform): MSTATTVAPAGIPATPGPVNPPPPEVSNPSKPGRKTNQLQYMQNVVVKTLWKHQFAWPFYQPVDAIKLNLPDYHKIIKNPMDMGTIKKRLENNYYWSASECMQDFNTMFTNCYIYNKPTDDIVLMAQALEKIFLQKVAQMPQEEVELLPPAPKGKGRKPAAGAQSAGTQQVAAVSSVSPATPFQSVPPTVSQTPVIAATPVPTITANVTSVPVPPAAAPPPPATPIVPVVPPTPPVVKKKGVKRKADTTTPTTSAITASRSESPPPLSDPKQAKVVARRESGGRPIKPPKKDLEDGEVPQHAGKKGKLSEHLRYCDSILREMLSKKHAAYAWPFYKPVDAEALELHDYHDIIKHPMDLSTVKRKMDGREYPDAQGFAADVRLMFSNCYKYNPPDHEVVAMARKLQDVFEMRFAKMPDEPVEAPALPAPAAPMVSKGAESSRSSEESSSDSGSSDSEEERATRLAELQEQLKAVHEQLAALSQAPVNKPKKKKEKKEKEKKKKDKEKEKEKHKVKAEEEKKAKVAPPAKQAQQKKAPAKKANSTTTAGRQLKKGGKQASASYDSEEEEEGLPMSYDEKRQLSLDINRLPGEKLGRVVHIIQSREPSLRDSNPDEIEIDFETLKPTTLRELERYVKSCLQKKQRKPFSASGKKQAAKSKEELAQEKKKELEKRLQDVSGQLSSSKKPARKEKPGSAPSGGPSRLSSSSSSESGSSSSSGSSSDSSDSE
T4 sequence (O43791 whole entry, looked up, canonical isoform): as the sequence (O43791 whole entry, looked up, other chains not shown, canonical isoform) above
T4 sequence (P25440 whole entry, looked up, canonical isoform): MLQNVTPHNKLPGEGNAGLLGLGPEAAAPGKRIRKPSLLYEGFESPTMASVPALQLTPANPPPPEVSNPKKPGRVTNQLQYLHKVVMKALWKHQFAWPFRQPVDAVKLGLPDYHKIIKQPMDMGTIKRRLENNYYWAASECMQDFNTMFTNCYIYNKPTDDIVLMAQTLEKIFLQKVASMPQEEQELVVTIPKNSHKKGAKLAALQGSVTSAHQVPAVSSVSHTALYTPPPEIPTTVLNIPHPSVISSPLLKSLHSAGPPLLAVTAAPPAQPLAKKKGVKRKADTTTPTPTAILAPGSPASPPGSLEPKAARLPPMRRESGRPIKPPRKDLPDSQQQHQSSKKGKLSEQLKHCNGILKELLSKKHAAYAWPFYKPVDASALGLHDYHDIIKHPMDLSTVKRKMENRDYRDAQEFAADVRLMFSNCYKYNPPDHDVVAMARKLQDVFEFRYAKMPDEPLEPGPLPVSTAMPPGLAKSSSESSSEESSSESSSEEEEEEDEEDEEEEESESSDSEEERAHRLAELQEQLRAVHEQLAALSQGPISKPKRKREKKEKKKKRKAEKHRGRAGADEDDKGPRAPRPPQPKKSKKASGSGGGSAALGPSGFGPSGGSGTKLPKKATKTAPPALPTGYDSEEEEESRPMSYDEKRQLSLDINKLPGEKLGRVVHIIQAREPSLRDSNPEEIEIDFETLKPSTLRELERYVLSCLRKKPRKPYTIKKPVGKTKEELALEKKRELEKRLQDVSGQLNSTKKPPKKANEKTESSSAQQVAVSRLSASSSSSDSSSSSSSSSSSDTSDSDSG

- Activity [1]: Active
- fold change (FC) [2]: 0.5
- fold change (FC) [3]: 0.9
- pKd [4]: 6.70
- Activity [5]: Active
- Activity [6]: Active
- fold change (FC) [7]: 1
- Activity [8]: inactive
- fold change (FC) [9]: 0.4
- Activity [10]: Dose-dependent-effect
- DC50 [10]: 6.2 µM
- fold change (FC) [12]: 0.03
- fold change (FC) [13]: 0.6
- Activity [14]: 50%
- fold change (FC) [15]: 1.2
- fold change (FC) [16]: 0.1
- GI50 (HT-29 [17]; HT-29, 72 h, time 3 day): 4.5 µM
- fold change (FC) [18]: 0.9
- Activity [19]: Active
- fold change (FC) [20]: 1.2
- fold change (FC) [22]: 0.9
- fold change (FC) [23]: 1.1
- fold change (FC) [24]: 0.7
- fold change (FC) [26]: 1.2
- Activity [27]: Time-dependent-effect
SMILES: COc1cc2c(NC3CCN(CCCC(=O)NCCCCCCCCCCNC(=O)C[C@@H]4N=C(c5ccc(Cl)cc5)c5c(sc(C)c5C)-n5c(C)nnc54)CC3)cc(N3CCOCC3)nc2cc1OCCCN1CCCC1
- Activity (PNT2): Non-toxic
- Activity (HT-29 [11]): inactive
- Activity (HT-29 [17]; time 3.0 day): Dose-dependent-effect
- Activity (HT-29 [21]): inactive
- Activity (HT-29 [25]): Active
